Measured values reported in PubChem BioAssay (NCI).
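These data come from cells grown in 96-well plates and exposed to compound for 48 hours at five concentrations. Definition used: TGI = concentration required for complete inhibition of growth.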

Assays:
Test in all cases: NCI tumour cell line growth inhibition, 48 h
NCI-H522 lung = system: NCI-H522 lung
UACC-62 melanoma = system: UACC-62 melanoma
HOP-92 NSCLC = system: HOP-92 NSCLC
HCT-116 colon = system: HCT-116 colon
KM12 colon = system: KM12 colon
UACC-257 melanoma = system: UACC-257 melanoma
U251 CNS = system: U251 CNS
IGROV1 ovarian = system: IGROV1 ovarian
DMS 273 small cell lung = system: DMS 273 small cell lung
A498 renal = system: A498 renal
HCT-15 colon = system: HCT-15 colon
LOX IMVI melanoma = system: LOX IMVI melanoma
SF-539 CNS = system: SF-539 CNS
SNB-78 CNS = system: SNB-78 CNS
DLD-1 colon = system: DLD-1 colon
HL-60(TB) leukemia = system: HL-60(TB) leukemia
CCRF-CEM leukemia = system: CCRF-CEM leukemia
UO-31 renal = system: UO-31 renal
NCI-H460 lung = system: NCI-H460 lung
SR leukemia = system: SR leukemia
ACHN renal = system: ACHN renal
OVCAR-4 ovarian = system: OVCAR-4 ovarian
786-0 renal = system: 786-0 renal
SK-OV-3 ovarian = system: SK-OV-3 ovarian
SNB-19 CNS = system: SNB-19 CNS
SK-MEL-28 melanoma = system: SK-MEL-28 melanoma
SW-620 colon = system: SW-620 colon
RXF-631 renal = system: RXF-631 renal
SN12C renal = system: SN12C renal
OVCAR-5 ovarian = system: OVCAR-5 ovarian
MALME-3M melanoma = system: MALME-3M melanoma
XF 498 CNS = system: XF 498 CNS
SK-MEL-5 melanoma = system: SK-MEL-5 melanoma
TK-10 renal = system: TK-10 renal
HOP-62 NSCLC = system: HOP-62 NSCLC
HCC-2998 colon = system: HCC-2998 colon
CAKI-1 renal = system: CAKI-1 renal
NCI-H226 lung = system: NCI-H226 lung
HT29 colon = system: HT29 colon
MOLT-4 leukemia = system: MOLT-4 leukemia
DMS 114 small cell lung = system: DMS 114 small cell lung
SF-268 CNS = system: SF-268 CNS
KM20L2 colon = system: KM20L2 colon
HOP-18 NSCLC = system: HOP-18 NSCLC
K-562 leukemia = system: K-562 leukemia
EKVX NSCLC = system: EKVX NSCLC
M19-MEL melanoma = system: M19-MEL melanoma
NCI-H23 lung = system: NCI-H23 lung
OVCAR-8 ovarian = system: OVCAR-8 ovarian
A549 NSCLC = system: A549 NSCLC
SNB-75 CNS = system: SNB-75 CNS
LXFL 529 NSCLC = system: LXFL 529 NSCLC
OVCAR-3 ovarian = system: OVCAR-3 ovarian
SF-295 CNS = system: SF-295 CNS
M14 melanoma = system: M14 melanoma
RPMI-8226 leukemia = system: RPMI-8226 leukemia
SK-MEL-2 melanoma = system: SK-MEL-2 melanoma
COLO 205 colon = system: COLO 205 colon
RXF 393 renal = system: RXF 393 renal

Cc1cc(Cl)ccc1NC(=O)/C(=N\NC(C)(C)C)C(C#N)c1nc(-c2ccc([N+](=O)[O-])cc2)cs1 (stereo not given)
TGI (NCI-H522 lung): > 100 µM | TGI (UACC-62 melanoma): > 100 µM | TGI (HOP-92 NSCLC): > 100 µM | TGI (HCT-116 colon): > 100 µM | TGI (KM12 colon): > 100 µM | TGI (UACC-257 melanoma): > 100 µM | TGI (U251 CNS): > 100 µM | TGI (IGROV1 ovarian): > 100 µM | TGI (DMS 273 small cell lung): > 100 µM | TGI (A498 renal): > 100 µM | TGI (HCT-15 colon): > 100 µM | TGI (LOX IMVI melanoma): > 100 µM | TGI (SF-539 CNS): > 100 µM | TGI (SNB-78 CNS): > 100 µM | TGI (DLD-1 colon): > 100 µM | TGI (HL-60(TB) leukemia): > 100 µM | TGI (CCRF-CEM leukemia): > 100 µM | TGI (UO-31 renal): > 100 µM | TGI (NCI-H460 lung): > 100 µM | TGI (SR leukemia): > 100 µM | TGI (ACHN renal): > 100 µM | TGI (OVCAR-4 ovarian): > 100 µM | TGI (786-0 renal): > 100 µM | TGI (SK-OV-3 ovarian): > 100 µM | TGI (SNB-19 CNS): > 100 µM | TGI (SK-MEL-28 melanoma): > 100 µM | TGI (SW-620 colon): > 100 µM | TGI (RXF-631 renal): > 100 µM | TGI (SN12C renal): > 100 µM | TGI (OVCAR-5 ovarian): > 100 µM | TGI (MALME-3M melanoma): > 100 µM | TGI (XF 498 CNS): > 100 µM | TGI (SK-MEL-5 melanoma): > 100 µM | TGI (TK-10 renal): > 100 µM | TGI (HOP-62 NSCLC): > 100 µM | TGI (HCC-2998 colon): > 100 µM | TGI (CAKI-1 renal): > 100 µM | TGI (NCI-H226 lung): > 100 µM | TGI (HT29 colon): > 100 µM | TGI (MOLT-4 leukemia): > 100 µM | TGI (DMS 114 small cell lung): > 100 µM | TGI (SF-268 CNS): > 100 µM | TGI (KM20L2 colon): > 100 µM | TGI (HOP-18 NSCLC): > 100 µM | TGI (K-562 leukemia): > 100 µM | TGI (EKVX NSCLC): > 100 µM | TGI (M19-MEL melanoma): > 100 µM | TGI (NCI-H23 lung): > 100 µM | TGI (OVCAR-8 ovarian): > 100 µM | TGI (A549 NSCLC): > 100 µM | TGI (SNB-75 CNS): > 100 µM | TGI (LXFL 529 NSCLC): > 100 µM | TGI (OVCAR-3 ovarian): > 100 µM | TGI (SF-295 CNS): > 100 µM | TGI (M14 melanoma): > 100 µM | TGI (RPMI-8226 leukemia): > 100 µM | TGI (SK-MEL-2 melanoma): > 100 µM

COC(=O)/C=C1\CCC2[C@@H](C(=O)CC3[C@]2(C)CCC[C@@]3(C)C(=O)OC)C1C (stereo not given in full)
TGI (NCI-H522 lung): 36 µM | TGI (UACC-62 melanoma): 30 µM | TGI (HOP-92 NSCLC): 50.6 µM | TGI (HCT-116 colon): 48.3 µM | TGI (KM12 colon): 42.6 µM | TGI (UACC-257 melanoma): 33.9 µM | TGI (U251 CNS): > 100 µM | TGI (IGROV1 ovarian): 57 µM | TGI (DMS 273 small cell lung): 52.4 µM | TGI (A498 renal): 99.7 µM | TGI (HCT-15 colon): > 100 µM | TGI (SF-539 CNS): 61.1 µM | TGI (SNB-78 CNS): > 100 µM | TGI (DLD-1 colon): > 100 µM | TGI (HL-60(TB) leukemia): 35.1 µM | TGI (CCRF-CEM leukemia): 38.1 µM | TGI (UO-31 renal): 44.4 µM | TGI (NCI-H460 lung): 32.9 µM | TGI (ACHN renal): 63.9 µM | TGI (OVCAR-4 ovarian): 78.8 µM | TGI (786-0 renal): > 100 µM | TGI (SK-OV-3 ovarian): 72.4 µM | TGI (SNB-19 CNS): > 100 µM | TGI (SK-MEL-28 melanoma): 31.8 µM | TGI (SW-620 colon): 64.1 µM | TGI (RXF-631 renal): 63.1 µM | TGI (SN12C renal): 70.8 µM | TGI (OVCAR-5 ovarian): > 100 µM | TGI (MALME-3M melanoma): 54.1 µM | TGI (XF 498 CNS): 28 µM | TGI (SK-MEL-5 melanoma): 28 µM | TGI (TK-10 renal): 53.4 µM | TGI (HOP-62 NSCLC): 69.7 µM | TGI (HCC-2998 colon): 97.9 µM | TGI (CAKI-1 renal): > 100 µM | TGI (NCI-H226 lung): 56.6 µM | TGI (HT29 colon): 61 µM | TGI (MOLT-4 leukemia): 25.9 µM | TGI (DMS 114 small cell lung): 37.2 µM | TGI (SF-268 CNS): 52.1 µM | TGI (KM20L2 colon): 80.3 µM | TGI (HOP-18 NSCLC): 79.4 µM | TGI (K-562 leukemia): 41.3 µM | TGI (EKVX NSCLC): 72.8 µM | TGI (M19-MEL melanoma): 39.7 µM | TGI (OVCAR-8 ovarian): 50.5 µM | TGI (A549 NSCLC): 52 µM | TGI (SNB-75 CNS): 47.9 µM | TGI (LXFL 529 NSCLC): 23.7 µM | TGI (OVCAR-3 ovarian): 89 µM | TGI (SF-295 CNS): 71.8 µM | TGI (M14 melanoma): 34.2 µM | TGI (RPMI-8226 leukemia): 19.9 µM | TGI (COLO 205 colon): 33 µM | TGI (SK-MEL-2 melanoma): 39.4 µM

N#CC1(CCCI)CCCC1
TGI (NCI-H522 lung): 28.7 µM | TGI (UACC-62 melanoma): 35.8 µM | TGI (HOP-92 NSCLC): 35 µM | TGI (HCT-116 colon): > 100 µM | TGI (KM12 colon): > 100 µM | TGI (UACC-257 melanoma): > 100 µM | TGI (U251 CNS): 26.3 µM | TGI (IGROV1 ovarian): > 100 µM | TGI (DMS 273 small cell lung): > 100 µM | TGI (A498 renal): > 100 µM | TGI (HCT-15 colon): > 100 µM | TGI (LOX IMVI melanoma): 22.9 µM | TGI (SF-539 CNS): 45.1 µM | TGI (SNB-78 CNS): 38.3 µM | TGI (DLD-1 colon): > 100 µM | TGI (HL-60(TB) leukemia): 58.9 µM | TGI (CCRF-CEM leukemia): > 100 µM | TGI (UO-31 renal): > 100 µM | TGI (NCI-H460 lung): 25.9 µM | TGI (SR leukemia): > 100 µM | TGI (ACHN renal): > 100 µM | TGI (SK-OV-3 ovarian): > 100 µM | TGI (RXF 393 renal): 23 µM | TGI (SNB-19 CNS): 31.6 µM | TGI (SK-MEL-28 melanoma): 57.3 µM | TGI (SW-620 colon): > 100 µM | TGI (RXF-631 renal): 3.23 µM | TGI (SN12C renal): 26.3 µM | TGI (OVCAR-5 ovarian): 51.6 µM | TGI (MALME-3M melanoma): 80.6 µM | TGI (XF 498 CNS): 47.3 µM | TGI (SK-MEL-5 melanoma): 25.5 µM | TGI (TK-10 renal): > 100 µM | TGI (HCC-2998 colon): > 100 µM | TGI (HT29 colon): 80.6 µM | TGI (MOLT-4 leukemia): > 100 µM | TGI (DMS 114 small cell lung): 25.3 µM | TGI (SF-268 CNS): 41.3 µM | TGI (KM20L2 colon): > 100 µM | TGI (HOP-18 NSCLC): 36.3 µM | TGI (K-562 leukemia): > 100 µM | TGI (EKVX NSCLC): > 100 µM | TGI (M19-MEL melanoma): 45 µM | TGI (NCI-H23 lung): 24.7 µM | TGI (OVCAR-8 ovarian): > 100 µM | TGI (A549 NSCLC): > 100 µM | TGI (SNB-75 CNS): 20.2 µM | TGI (LXFL 529 NSCLC): > 100 µM | TGI (OVCAR-3 ovarian): 31.1 µM | TGI (SF-295 CNS): 94.7 µM | TGI (M14 melanoma): 50.4 µM | TGI (COLO 205 colon): > 100 µM | TGI (SK-MEL-2 melanoma): 81.8 µM
